# Source: PubChem BioAssay (NCI)
#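 Each compound was tested at five concentrations against cells in 96-well plates for 48 hours. TGI: concentration producing complete growth inhibition.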
# Tests used:
# Assay in all cases: growth of human tumour cells (NCI), 48 h
# 786-0 renal = system: 786-0 renal
# A549 NSCLC = system: A549 NSCLC
# ACHN renal = system: ACHN renal
# BT-549 breast = system: BT-549 breast
# CAKI-1 renal = system: CAKI-1 renal
# CCRF-CEM leukemia = system: CCRF-CEM leukemia
# COLO 205 colon = system: COLO 205 colon
# DU-145 prostate = system: DU-145 prostate
# EKVX NSCLC = system: EKVX NSCLC
# HCC-2998 colon = system: HCC-2998 colon
# HCT-116 colon = system: HCT-116 colon
# HCT-15 colon = system: HCT-15 colon
# HL-60(TB) leukemia = system: HL-60(TB) leukemia
# HOP-62 NSCLC = system: HOP-62 NSCLC
# HOP-92 NSCLC = system: HOP-92 NSCLC
# HS 578T breast = system: HS 578T breast
# HT29 colon = system: HT29 colon
# IGROV1 ovarian = system: IGROV1 ovarian
# K-562 leukemia = system: K-562 leukemia
# KM12 colon = system: KM12 colon
# LOX IMVI melanoma = system: LOX IMVI melanoma
# M14 melanoma = system: M14 melanoma
# MALME-3M melanoma = system: MALME-3M melanoma
# MCF7 breast = system: MCF7 breast
# MDA-MB-231 breast = system: MDA-MB-231 breast
# MDA-MB-435 = system: MDA-MB-435
# MDA-N = system: MDA-N
# MOLT-4 leukemia = system: MOLT-4 leukemia
# NCI-H226 lung = system: NCI-H226 lung
# NCI-H23 lung = system: NCI-H23 lung
# NCI-H460 lung = system: NCI-H460 lung
# NCI-H522 lung = system: NCI-H522 lung
# NCI/ADR-RES ovarian = system: NCI/ADR-RES ovarian
# OVCAR-3 ovarian = system: OVCAR-3 ovarian
# OVCAR-4 ovarian = system: OVCAR-4 ovarian
# OVCAR-5 ovarian = system: OVCAR-5 ovarian
# OVCAR-8 ovarian = system: OVCAR-8 ovarian
# PC-3 prostate = system: PC-3 prostate
# RPMI-8226 leukemia = system: RPMI-8226 leukemia
# RXF 393 renal = system: RXF 393 renal
# SF-268 CNS = system: SF-268 CNS
# SF-295 CNS = system: SF-295 CNS
# SF-539 CNS = system: SF-539 CNS
# SK-MEL-2 melanoma = system: SK-MEL-2 melanoma
# SK-MEL-28 melanoma = system: SK-MEL-28 melanoma
# SK-MEL-5 melanoma = system: SK-MEL-5 melanoma
# SK-OV-3 ovarian = system: SK-OV-3 ovarian
# SN12C renal = system: SN12C renal
# SNB-19 CNS = system: SNB-19 CNS
# SNB-75 CNS = system: SNB-75 CNS
# SR leukemia = system: SR leukemia
# SW-620 colon = system: SW-620 colon
# T-47D breast = system: T-47D breast
# TK-10 renal = system: TK-10 renal
# U251 CNS = system: U251 CNS
# UACC-257 melanoma = system: UACC-257 melanoma
# UACC-62 melanoma = system: UACC-62 melanoma
# UO-31 renal = system: UO-31 renal
# A498 renal = system: A498 renal
smiles,measurement,setting,value
O=C(O)c1ccccc1CC1Cc2ccccc2C1=O (stereo not given),TGI,786-0 renal,> 100 µM
same,TGI,A549 NSCLC,> 100 µM
same,TGI,ACHN renal,> 100 µM
same,TGI,BT-549 breast,> 100 µM
same,TGI,CAKI-1 renal,> 100 µM
same,TGI,CCRF-CEM leukemia,> 100 µM
same,TGI,COLO 205 colon,> 100 µM
same,TGI,DU-145 prostate,> 100 µM
same,TGI,EKVX NSCLC,> 100 µM
same,TGI,HCC-2998 colon,> 100 µM
same,TGI,HCT-116 colon,> 100 µM
same,TGI,HCT-15 colon,> 100 µM
same,TGI,HL-60(TB) leukemia,> 100 µM
same,TGI,HOP-62 NSCLC,> 100 µM
same,TGI,HOP-92 NSCLC,> 100 µM
same,TGI,HS 578T breast,> 100 µM
same,TGI,HT29 colon,> 100 µM
same,TGI,IGROV1 ovarian,> 100 µM
same,TGI,K-562 leukemia,> 100 µM
same,TGI,KM12 colon,> 100 µM
same,TGI,LOX IMVI melanoma,> 100 µM
same,TGI,M14 melanoma,> 100 µM
same,TGI,MALME-3M melanoma,> 100 µM
same,TGI,MCF7 breast,> 100 µM
same,TGI,MDA-MB-231 breast,> 100 µM
same,TGI,MDA-MB-435,> 100 µM
same,TGI,MDA-N,> 100 µM
same,TGI,MOLT-4 leukemia,> 100 µM
same,TGI,NCI-H226 lung,> 100 µM
same,TGI,NCI-H23 lung,> 100 µM
same,TGI,NCI-H460 lung,> 100 µM
same,TGI,NCI-H522 lung,> 100 µM
same,TGI,NCI/ADR-RES ovarian,> 100 µM
same,TGI,OVCAR-3 ovarian,> 100 µM
same,TGI,OVCAR-4 ovarian,> 100 µM
same,TGI,OVCAR-5 ovarian,> 100 µM
same,TGI,OVCAR-8 ovarian,> 100 µM
same,TGI,PC-3 prostate,> 100 µM
same,TGI,RPMI-8226 leukemia,> 100 µM
same,TGI,RXF 393 renal,> 100 µM
same,TGI,SF-268 CNS,> 100 µM
same,TGI,SF-295 CNS,> 100 µM
same,TGI,SF-539 CNS,> 100 µM
same,TGI,SK-MEL-2 melanoma,> 100 µM
same,TGI,SK-MEL-28 melanoma,> 100 µM
same,TGI,SK-MEL-5 melanoma,> 100 µM
same,TGI,SK-OV-3 ovarian,> 100 µM
same,TGI,SN12C renal,> 100 µM
same,TGI,SNB-19 CNS,> 100 µM
same,TGI,SNB-75 CNS,> 100 µM
same,TGI,SR leukemia,> 100 µM
same,TGI,SW-620 colon,> 100 µM
same,TGI,T-47D breast,> 100 µM
same,TGI,TK-10 renal,> 100 µM
same,TGI,U251 CNS,> 100 µM
same,TGI,UACC-257 melanoma,> 100 µM
same,TGI,UACC-62 melanoma,> 100 µM
same,TGI,UO-31 renal,> 100 µM
CC1(C)C2CCC1(C)[C@H](n1c(=O)n([C@@H]3CC4CCC3(C)C4(C)C)c(=O)n([C@@H]3CC4CCC3(C)C4(C)C)c1=O)C2,TGI,786-0 renal,> 100 µM
same,TGI,A498 renal,> 100 µM
same,TGI,A549 NSCLC,> 100 µM
same,TGI,ACHN renal,> 100 µM
same,TGI,BT-549 breast,> 100 µM
same,TGI,CAKI-1 renal,> 100 µM
same,TGI,DU-145 prostate,> 100 µM
same,TGI,EKVX NSCLC,67.1 µM
same,TGI,HCC-2998 colon,57.5 µM
same,TGI,HCT-116 colon,> 100 µM
same,TGI,HCT-15 colon,> 100 µM
same,TGI,HL-60(TB) leukemia,63.1 µM
same,TGI,HOP-62 NSCLC,> 100 µM
same,TGI,HOP-92 NSCLC,> 100 µM
same,TGI,HS 578T breast,> 100 µM
same,TGI,HT29 colon,> 100 µM
same,TGI,IGROV1 ovarian,> 100 µM
same,TGI,K-562 leukemia,> 100 µM
same,TGI,KM12 colon,> 100 µM
same,TGI,LOX IMVI melanoma,> 100 µM
same,TGI,M14 melanoma,> 100 µM
same,TGI,MCF7 breast,> 100 µM
same,TGI,MDA-MB-231 breast,> 100 µM
same,TGI,MDA-MB-435,> 100 µM
same,TGI,MDA-N,> 100 µM
same,TGI,MOLT-4 leukemia,> 100 µM
same,TGI,NCI-H226 lung,76.4 µM
same,TGI,NCI-H23 lung,> 100 µM
same,TGI,NCI-H460 lung,> 100 µM
same,TGI,NCI-H522 lung,> 100 µM
same,TGI,NCI/ADR-RES ovarian,> 100 µM
same,TGI,OVCAR-3 ovarian,> 100 µM
same,TGI,OVCAR-4 ovarian,> 100 µM
same,TGI,OVCAR-5 ovarian,> 100 µM
same,TGI,OVCAR-8 ovarian,> 100 µM
same,TGI,PC-3 prostate,> 100 µM
same,TGI,RPMI-8226 leukemia,> 100 µM
same,TGI,RXF 393 renal,55.8 µM
same,TGI,SF-268 CNS,> 100 µM
same,TGI,SF-295 CNS,> 100 µM
same,TGI,SF-539 CNS,48.6 µM
same,TGI,SK-MEL-2 melanoma,72.7 µM
same,TGI,SK-MEL-28 melanoma,> 100 µM
same,TGI,SK-MEL-5 melanoma,> 100 µM
same,TGI,SNB-75 CNS,46.5 µM
same,TGI,SR leukemia,> 100 µM
same,TGI,SW-620 colon,> 100 µM
same,TGI,T-47D breast,> 100 µM
same,TGI,TK-10 renal,> 100 µM
same,TGI,U251 CNS,> 100 µM
same,TGI,UACC-257 melanoma,> 100 µM
same,TGI,UO-31 renal,> 100 µM
CCNC(=O)Cc1nc2c(N)ncnc2n1C1OC(CO)C(O)C1O (stereo not given),TGI,786-0 renal,> 100 µM
same,TGI,A498 renal,> 100 µM
same,TGI,A549 NSCLC,> 100 µM
same,TGI,ACHN renal,> 100 µM
same,TGI,BT-549 breast,> 100 µM
same,TGI,CAKI-1 renal,> 100 µM
same,TGI,COLO 205 colon,> 100 µM
same,TGI,DU-145 prostate,> 100 µM
same,TGI,EKVX NSCLC,> 100 µM
same,TGI,HCC-2998 colon,> 100 µM
same,TGI,HCT-116 colon,> 100 µM
same,TGI,HCT-15 colon,> 100 µM
same,TGI,HL-60(TB) leukemia,> 100 µM
same,TGI,HOP-62 NSCLC,> 100 µM
same,TGI,HOP-92 NSCLC,> 100 µM
same,TGI,HS 578T breast,> 100 µM
same,TGI,HT29 colon,> 100 µM
same,TGI,IGROV1 ovarian,> 100 µM
same,TGI,K-562 leukemia,> 100 µM
same,TGI,KM12 colon,> 100 µM
same,TGI,LOX IMVI melanoma,> 100 µM
same,TGI,M14 melanoma,> 100 µM
same,TGI,MALME-3M melanoma,> 100 µM
same,TGI,MCF7 breast,86.5 µM
same,TGI,MDA-MB-231 breast,> 100 µM
same,TGI,MDA-MB-435,> 100 µM
same,TGI,MDA-N,> 100 µM
same,TGI,MOLT-4 leukemia,> 100 µM
same,TGI,NCI-H226 lung,> 100 µM
same,TGI,NCI-H23 lung,> 100 µM
same,TGI,NCI-H460 lung,> 100 µM
same,TGI,NCI-H522 lung,> 100 µM
same,TGI,NCI/ADR-RES ovarian,> 100 µM
same,TGI,OVCAR-3 ovarian,> 100 µM
same,TGI,OVCAR-4 ovarian,> 100 µM
same,TGI,OVCAR-8 ovarian,> 100 µM
same,TGI,PC-3 prostate,> 100 µM
same,TGI,RPMI-8226 leukemia,> 100 µM
same,TGI,SF-268 CNS,> 100 µM
same,TGI,SF-295 CNS,> 100 µM
same,TGI,SF-539 CNS,> 100 µM
same,TGI,SK-MEL-2 melanoma,> 100 µM
same,TGI,SK-MEL-28 melanoma,> 100 µM
same,TGI,SK-MEL-5 melanoma,> 100 µM
same,TGI,SK-OV-3 ovarian,> 100 µM
same,TGI,SN12C renal,> 100 µM
same,TGI,SNB-19 CNS,> 100 µM
same,TGI,SR leukemia,> 100 µM
same,TGI,SW-620 colon,> 100 µM
same,TGI,T-47D breast,> 100 µM
same,TGI,TK-10 renal,> 100 µM
same,TGI,U251 CNS,> 100 µM
same,TGI,UACC-257 melanoma,> 100 µM
same,TGI,UACC-62 melanoma,> 100 µM
same,TGI,UO-31 renal,> 100 µM
